Each structure is given as a SMILES string. ≈ marks a conversion by molar mass, not a printed value.

The term IC50 denotes the concentration that gives 50% inhibition. As usually defined, the Papp A→B is how fast a substance crosses the layer from the apical side. The solubility is how much of the substance goes into solution per volume. A high value points to much dissolved substance.

One data set concerns the target T1, Kir3.1/Kir3.4 (Homo sapiens, UniProt P48544+P48549).
T1 sequence (P48549 whole entry): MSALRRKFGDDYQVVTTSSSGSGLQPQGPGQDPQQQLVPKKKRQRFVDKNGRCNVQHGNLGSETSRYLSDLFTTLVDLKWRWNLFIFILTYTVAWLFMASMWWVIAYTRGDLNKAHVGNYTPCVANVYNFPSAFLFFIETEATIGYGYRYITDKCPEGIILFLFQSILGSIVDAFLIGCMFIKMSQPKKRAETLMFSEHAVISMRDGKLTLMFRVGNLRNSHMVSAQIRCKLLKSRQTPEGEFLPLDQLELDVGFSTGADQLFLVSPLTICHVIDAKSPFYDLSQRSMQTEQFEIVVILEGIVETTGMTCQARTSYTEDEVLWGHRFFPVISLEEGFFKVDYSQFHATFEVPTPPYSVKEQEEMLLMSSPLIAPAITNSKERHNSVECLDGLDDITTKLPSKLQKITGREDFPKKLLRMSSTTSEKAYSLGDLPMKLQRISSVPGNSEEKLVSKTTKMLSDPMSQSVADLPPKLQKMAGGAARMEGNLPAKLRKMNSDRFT
T1 sequence (P48544 whole entry): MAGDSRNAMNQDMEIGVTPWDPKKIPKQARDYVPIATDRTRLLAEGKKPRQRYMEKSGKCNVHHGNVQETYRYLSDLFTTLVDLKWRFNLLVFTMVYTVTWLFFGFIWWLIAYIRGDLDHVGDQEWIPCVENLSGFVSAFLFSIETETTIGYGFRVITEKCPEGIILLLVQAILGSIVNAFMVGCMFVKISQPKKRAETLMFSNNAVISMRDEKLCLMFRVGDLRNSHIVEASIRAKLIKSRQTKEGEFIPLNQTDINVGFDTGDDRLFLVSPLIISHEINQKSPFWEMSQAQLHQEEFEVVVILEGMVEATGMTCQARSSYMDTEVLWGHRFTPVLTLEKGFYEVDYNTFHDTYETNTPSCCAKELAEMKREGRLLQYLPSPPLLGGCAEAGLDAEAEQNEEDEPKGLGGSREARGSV
Nature of the data set: Inhibition of recombinant human GIRK1/4 channel. It counts as protein-complex assay.
Conditions: not given
Take `Cc1cc(=O)c2c(F)cncc2n1-c1c(Cl)cc(OCC(O)CO)cc1Cl` (configuration not stated): the IC50 is 11 nM.

Consider `Cc1cc(=O)c2c(F)cncc2n1-c1c(Cl)cc(C#N)cc1Cl`, for which the IC50 came out at 190 nM.

Regarding `COc1ncc(C)c2c1c(=O)cc(CO)n2-c1c(Cl)cccc1Cl`, the IC50 was 290 nM.

Take `O=c1cc(CO)n(-c2c(Cl)cccc2Cl)c2c(Cl)cnc(OC(CO)CO)c12`: the IC50 stood at 250 nM.

With `Cc1cc(=O)c2c(F)cncc2n1-c1c(Cl)cc(C#CCN2CCOCC2)cc1Cl`, the IC50 is 220 nM.

On to `Cc1cc(=O)c2c(F)cncc2n1-c1c(Cl)cc(C#CCO)cc1Cl`, for which the IC50 was 140 nM.

The target of another data set is T2, Kir3.1/Kir3.2 (Homo sapiens, UniProt P48051+P48549).
T2 sequence (P48549 whole entry): T1 sequence (P48549 whole entry)
T2 sequence (P48051 whole entry): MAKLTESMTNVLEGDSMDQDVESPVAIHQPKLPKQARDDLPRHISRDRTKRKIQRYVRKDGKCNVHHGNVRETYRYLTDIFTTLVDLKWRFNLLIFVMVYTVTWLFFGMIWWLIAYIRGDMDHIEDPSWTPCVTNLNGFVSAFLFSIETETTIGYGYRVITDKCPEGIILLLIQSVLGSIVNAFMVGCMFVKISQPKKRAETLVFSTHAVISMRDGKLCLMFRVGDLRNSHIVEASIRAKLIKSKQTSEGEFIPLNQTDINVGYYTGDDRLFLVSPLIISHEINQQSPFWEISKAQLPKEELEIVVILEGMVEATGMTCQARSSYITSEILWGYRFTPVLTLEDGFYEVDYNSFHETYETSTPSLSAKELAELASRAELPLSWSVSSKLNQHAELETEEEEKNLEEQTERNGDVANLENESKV
Kind of data set: Inhibition of recombinant human GIRK1/2 channel. It is filed as protein-complex assay.
Conditions: not given
On to `Cc1cc(=O)c2c(F)cncc2n1-c1c(Cl)cc(C#N)cc1Cl`, for which the IC50 is 200 nM.

System in the next data set: not listed separately
Kind of data set: Apparent permeability across apical to basolateral side in MDCK cells. It counts as ADME, cell-based, Canis lupus familiaris. To be noted: dog.
Take `Cc1cc(=O)c2c(OCCO)ncc(Cl)c2n1-c1c(Cl)cccc1Cl`: the Papp A→B was 32.6 ×10⁻⁶ cm/s.

Take `Cc1cc(=O)c2c(OCCOCCOCCOCCO)ncc(Cl)c2n1-c1c(Cl)cccc1Cl`: the Papp A→B stood at 23 ×10⁻⁶ cm/s.

For `Cc1cc(=O)c2c(F)cncc2n1-c1c(Cl)cc(OCC(O)CO)cc1Cl` (configuration not stated), the Papp A→B was found to be 31 ×10⁻⁶ cm/s.

As for `Cc1cc(=O)c2c(F)cncc2n1-c1c(Cl)cc(C#N)cc1Cl`, the Papp A→B worked out at 13.9 ×10⁻⁶ cm/s.

In the case of `COc1ncc(C)c2c1c(=O)cc(CO)n2-c1c(Cl)cccc1Cl`, the Papp A→B came to 8.5 ×10⁻⁶ cm/s.

On to `O=c1cc(CO)n(-c2c(Cl)cccc2Cl)c2c(Cl)cnc(OC(CO)CO)c12`, for which the Papp A→B was determined as 6.9 ×10⁻⁶ cm/s.

On to `Cc1cc(=O)c2c(F)cncc2n1-c1c(Cl)cc(C#CCN2CCOCC2)cc1Cl`, for which the Papp A→B was found to be 20.4 ×10⁻⁶ cm/s.

For the compound `Cc1cc(=O)c2c(OCC(O)COCC(O)CO)ncc(Cl)c2n1-c1c(Cl)cccc1Cl` (configuration not stated), the Papp A→B amounted to 7.5 ×10⁻⁶ cm/s.

With `Cc1cc(=O)c2c(F)cncc2n1-c1c(Cl)cc(C#CCO)cc1Cl`, the Papp A→B is 26.6 ×10⁻⁶ cm/s.

System in another data set: not listed separately
Kind of data set: Intrinsic clearance in human liver microsomes. It counts as ADME, Microsome. To be noted: read-out: CLH.
As to `Cc1cc(=O)c2c(F)cncc2n1-c1c(Cl)cc(C#N)cc1Cl`, the microsomal CLint was 12 µL/min/mg.

System in a further data set: not listed separately
Nature of the data set: Brain to plasma ratio in rat. It counts as ADME. The note with it: read-out: BPR.
As for `Cc1cc(=O)c2c(F)cncc2n1-c1c(Cl)cc(OCC(O)CO)cc1Cl` (configuration not stated), the Kp stood at 1.

System in another data set: not listed separately
Kind of data set: Toxicity in iv dosed rat assessed as neurobehavioral disturbances by measuring increase in motor activity. It counts as organism-based. The note with it: in vivo.
In the case of `Cc1cc(=O)c2c(F)cncc2n1-c1c(Cl)cc(C#N)cc1Cl`, the Activity result was “Toxic”.

A further data set deals with Voltage-dependent L-type calcium channel subunit alpha-1C (Homo sapiens, UniProt Q13936). Nature of the data set: Inhibition of recombinant human Cav1.2. It counts as toxicity.
Conditions: not given
On to `Cc1cc(=O)c2c(F)cncc2n1-c1c(Cl)cc(C#N)cc1Cl`, for which the 50% inhibitory concentration (IC50) is more than 50000 nM.

In another data set the target is Voltage-gated inwardly rectifying potassium channel KCNH2 (Homo sapiens, UniProt Q12809). Kind of data set: Inhibition of recombinant hERG in the presence of dofetilide by competitive binding assay. It counts as toxicity.
Voltage-gated inwardly rectifying potassium channel KCNH2, sequence (Q12809 whole entry): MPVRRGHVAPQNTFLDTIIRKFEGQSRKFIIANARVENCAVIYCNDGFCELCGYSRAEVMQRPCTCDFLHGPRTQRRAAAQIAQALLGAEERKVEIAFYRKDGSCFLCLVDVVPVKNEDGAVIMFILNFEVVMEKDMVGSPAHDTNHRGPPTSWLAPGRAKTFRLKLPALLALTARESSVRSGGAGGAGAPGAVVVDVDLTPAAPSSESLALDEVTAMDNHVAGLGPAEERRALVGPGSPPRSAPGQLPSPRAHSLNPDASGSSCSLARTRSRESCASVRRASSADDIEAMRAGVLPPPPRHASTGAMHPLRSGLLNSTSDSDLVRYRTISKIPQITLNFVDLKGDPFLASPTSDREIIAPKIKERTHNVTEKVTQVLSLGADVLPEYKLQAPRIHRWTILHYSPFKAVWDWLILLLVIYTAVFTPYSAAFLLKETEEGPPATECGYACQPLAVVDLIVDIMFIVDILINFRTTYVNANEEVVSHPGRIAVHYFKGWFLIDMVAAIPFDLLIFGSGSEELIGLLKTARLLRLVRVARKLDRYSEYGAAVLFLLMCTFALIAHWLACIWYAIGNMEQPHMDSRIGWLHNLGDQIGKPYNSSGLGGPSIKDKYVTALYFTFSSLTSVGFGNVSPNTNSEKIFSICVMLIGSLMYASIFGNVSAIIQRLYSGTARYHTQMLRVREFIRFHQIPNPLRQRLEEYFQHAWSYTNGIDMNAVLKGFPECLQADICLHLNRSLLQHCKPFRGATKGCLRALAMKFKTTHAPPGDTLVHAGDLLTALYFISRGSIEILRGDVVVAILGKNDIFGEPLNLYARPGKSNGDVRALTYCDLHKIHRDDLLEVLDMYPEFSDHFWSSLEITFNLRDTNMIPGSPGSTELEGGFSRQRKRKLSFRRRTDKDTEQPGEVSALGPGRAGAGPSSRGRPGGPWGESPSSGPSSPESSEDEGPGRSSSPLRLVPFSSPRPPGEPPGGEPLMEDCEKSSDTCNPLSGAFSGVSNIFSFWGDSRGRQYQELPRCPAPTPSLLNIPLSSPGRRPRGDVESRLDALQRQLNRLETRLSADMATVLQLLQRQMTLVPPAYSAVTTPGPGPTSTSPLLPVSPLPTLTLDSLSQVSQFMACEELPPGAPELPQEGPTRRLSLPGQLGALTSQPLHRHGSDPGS
Conditions: not given
In general terms: The hERG channel carries a current that helps repolarise heart muscle cells.
Take `Cc1cc(=O)c2c(F)cncc2n1-c1c(Cl)cc(C#N)cc1Cl`: the IC50 is more than 30000 nM.

A further data set deals with T3, Potassium voltage-gated channel subfamily KQT member 1 (Homo sapiens, UniProt P51787).
T3 sequence (P51787 whole entry): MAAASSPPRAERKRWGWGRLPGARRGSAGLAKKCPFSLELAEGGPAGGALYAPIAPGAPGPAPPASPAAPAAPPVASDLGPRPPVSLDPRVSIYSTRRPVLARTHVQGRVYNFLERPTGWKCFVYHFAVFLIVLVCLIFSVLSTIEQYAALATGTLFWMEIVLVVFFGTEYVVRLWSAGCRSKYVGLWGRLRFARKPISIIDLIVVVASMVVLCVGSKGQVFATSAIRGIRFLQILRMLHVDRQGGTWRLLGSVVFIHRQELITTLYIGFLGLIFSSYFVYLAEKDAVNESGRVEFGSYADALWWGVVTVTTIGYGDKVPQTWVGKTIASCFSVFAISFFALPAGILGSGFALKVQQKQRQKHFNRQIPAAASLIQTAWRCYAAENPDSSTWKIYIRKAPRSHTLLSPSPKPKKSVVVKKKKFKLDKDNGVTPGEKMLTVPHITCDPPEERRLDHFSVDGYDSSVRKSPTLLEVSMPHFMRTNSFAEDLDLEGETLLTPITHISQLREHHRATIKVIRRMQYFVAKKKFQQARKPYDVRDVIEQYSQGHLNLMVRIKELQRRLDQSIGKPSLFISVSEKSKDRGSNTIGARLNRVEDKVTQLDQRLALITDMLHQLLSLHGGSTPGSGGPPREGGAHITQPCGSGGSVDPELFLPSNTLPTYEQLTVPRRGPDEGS
Nature of the data set: Inhibition of recombinant human KCNQ1. It is filed as toxicity.
Conditions: not given
For the compound `Cc1cc(=O)c2c(F)cncc2n1-c1c(Cl)cc(C#N)cc1Cl`, the IC50 was more than 50000 nM.

System in a further data set: not listed separately
Nature of the data set: Aqueous solubility of the compound at pH 6.8. It is filed as physicochemical.
Conditions: not given
Regarding `Cc1cc(=O)c2c(OCCO)ncc(Cl)c2n1-c1c(Cl)cccc1Cl`, the solubility was found to be 430 µM (≈ 172 µg/mL).

The compound `Cc1cc(=O)c2c(OCCOCCOCCOCCO)ncc(Cl)c2n1-c1c(Cl)cccc1Cl` yielded a solubility of 600 µM (≈ 319 µg/mL).

As to `Cc1cc(=O)c2c(F)cncc2n1-c1c(Cl)cc(OCC(O)CO)cc1Cl` (configuration not stated), the solubility came to 660 µM (≈ 273 µg/mL).

For the compound `Cc1cc(=O)c2c(F)cncc2n1-c1c(Cl)cc(C#N)cc1Cl`, the solubility is 52 µM (≈ 18.1 µg/mL).

In turn, `COc1ncc(C)c2c1c(=O)cc(CO)n2-c1c(Cl)cccc1Cl` gave a solubility of 280 µM (≈ 102 µg/mL).

In the case of `O=c1cc(CO)n(-c2c(Cl)cccc2Cl)c2c(Cl)cnc(OC(CO)CO)c12`, the solubility stood at 300 µM (≈ 134 µg/mL).

The compound `Cc1cc(=O)c2c(F)cncc2n1-c1c(Cl)cc(C#CCN2CCOCC2)cc1Cl` showed a solubility of 240 µM (≈ 107 µg/mL).

`Cc1cc(=O)c2c(OCC(O)COCC(O)CO)ncc(Cl)c2n1-c1c(Cl)cccc1Cl` (configuration not stated) showed a solubility of 720 µM (≈ 363 µg/mL).

The compound `Cc1cc(=O)c2c(F)cncc2n1-c1c(Cl)cc(C#CCO)cc1Cl` returned a solubility of 170 µM (≈ 64.1 µg/mL).

System in a further data set: not listed separately
Nature of the data set: Intrinsic clearance in rat liver microsomes. It is filed as ADME, Microsome. To be noted: read-out: CLH. In general terms: Liver microsomes are vesicles of endoplasmic reticulum, rich in cytochrome P450 enzymes.
As to `Cc1cc(=O)c2c(F)cncc2n1-c1c(Cl)cc(C#N)cc1Cl`, the microsomal CLint came out at 18 µL/min/mg.

System in another data set: not listed separately
Nature of the data set: Toxicity in iv dosed rat assessed as neurobehavioral disturbances by measuring convulsions. It counts as organism-based. To be noted: in vivo.
Turning to `Cc1cc(=O)c2c(F)cncc2n1-c1c(Cl)cc(C#N)cc1Cl`, the Activity entry was “Toxic”.

In the next data set the target is Sodium channel protein type 5 subunit alpha (Homo sapiens, UniProt Q14524). Kind of data set: Inhibition of recombinant human Nav1.5. It counts as toxicity.
Sodium channel protein type 5 subunit alpha, sequence (Q14524 whole entry): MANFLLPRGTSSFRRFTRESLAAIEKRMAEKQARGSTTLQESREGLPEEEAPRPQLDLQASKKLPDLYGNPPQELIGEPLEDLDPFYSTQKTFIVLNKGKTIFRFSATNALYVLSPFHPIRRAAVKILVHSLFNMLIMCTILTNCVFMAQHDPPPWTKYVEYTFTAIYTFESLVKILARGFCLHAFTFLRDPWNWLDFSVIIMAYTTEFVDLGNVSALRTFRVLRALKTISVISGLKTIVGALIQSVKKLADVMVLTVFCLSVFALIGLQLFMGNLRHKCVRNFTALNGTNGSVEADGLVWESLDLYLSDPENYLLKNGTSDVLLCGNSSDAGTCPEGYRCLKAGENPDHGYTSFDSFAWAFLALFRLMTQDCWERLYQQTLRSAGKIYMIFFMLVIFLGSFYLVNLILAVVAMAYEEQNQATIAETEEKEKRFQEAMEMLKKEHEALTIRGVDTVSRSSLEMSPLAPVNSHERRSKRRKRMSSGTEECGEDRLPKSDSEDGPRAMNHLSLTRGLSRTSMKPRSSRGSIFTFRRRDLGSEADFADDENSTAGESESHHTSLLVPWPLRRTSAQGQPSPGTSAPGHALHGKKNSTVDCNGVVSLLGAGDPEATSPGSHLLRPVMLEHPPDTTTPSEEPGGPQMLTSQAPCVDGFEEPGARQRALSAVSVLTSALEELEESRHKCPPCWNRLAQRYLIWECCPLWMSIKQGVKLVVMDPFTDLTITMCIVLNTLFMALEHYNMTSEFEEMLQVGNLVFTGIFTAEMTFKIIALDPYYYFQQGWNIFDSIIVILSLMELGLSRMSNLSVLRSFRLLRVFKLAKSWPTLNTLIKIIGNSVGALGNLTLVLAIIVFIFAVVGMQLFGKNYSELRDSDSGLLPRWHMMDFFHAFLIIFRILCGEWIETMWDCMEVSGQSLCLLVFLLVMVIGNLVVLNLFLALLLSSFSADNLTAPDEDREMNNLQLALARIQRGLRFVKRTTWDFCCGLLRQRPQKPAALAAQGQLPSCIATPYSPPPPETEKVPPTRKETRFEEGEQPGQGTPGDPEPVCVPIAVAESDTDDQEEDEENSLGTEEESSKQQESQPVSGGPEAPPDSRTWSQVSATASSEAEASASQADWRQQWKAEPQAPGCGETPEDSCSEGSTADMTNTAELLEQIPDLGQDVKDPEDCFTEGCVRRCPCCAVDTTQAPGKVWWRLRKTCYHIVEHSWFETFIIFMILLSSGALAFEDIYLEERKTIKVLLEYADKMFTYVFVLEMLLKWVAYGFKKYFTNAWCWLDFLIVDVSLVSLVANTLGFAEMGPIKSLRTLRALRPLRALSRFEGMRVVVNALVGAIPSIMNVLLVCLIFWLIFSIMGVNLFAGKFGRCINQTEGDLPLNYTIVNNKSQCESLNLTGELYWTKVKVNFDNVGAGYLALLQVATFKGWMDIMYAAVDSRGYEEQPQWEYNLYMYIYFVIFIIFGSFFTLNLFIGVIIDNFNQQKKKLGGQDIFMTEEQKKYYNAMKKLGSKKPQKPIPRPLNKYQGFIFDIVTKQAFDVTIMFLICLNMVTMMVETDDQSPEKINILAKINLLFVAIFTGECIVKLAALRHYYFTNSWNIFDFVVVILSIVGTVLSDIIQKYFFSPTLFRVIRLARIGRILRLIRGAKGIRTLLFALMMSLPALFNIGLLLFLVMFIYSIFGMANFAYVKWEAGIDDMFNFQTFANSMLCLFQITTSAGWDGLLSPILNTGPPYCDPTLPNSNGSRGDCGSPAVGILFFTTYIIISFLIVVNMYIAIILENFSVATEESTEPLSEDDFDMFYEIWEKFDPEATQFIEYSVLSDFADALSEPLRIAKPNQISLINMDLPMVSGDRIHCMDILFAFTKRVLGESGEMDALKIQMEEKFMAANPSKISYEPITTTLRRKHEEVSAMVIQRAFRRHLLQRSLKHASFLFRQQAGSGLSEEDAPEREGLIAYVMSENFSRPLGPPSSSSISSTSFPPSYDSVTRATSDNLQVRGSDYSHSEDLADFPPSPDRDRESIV
Conditions: not given
`Cc1cc(=O)c2c(F)cncc2n1-c1c(Cl)cc(C#N)cc1Cl`: the IC50 is more than 50000 nM.

Another data set relates to MDCK. Nature of the data set: Substrate activity at p-glycoprotein in MDCK cells overexpressing MDR1 assessed as efflux ratio of permeability from basolateral to apical side over apical to basolateral side. It counts as cell-based. The note with it: Canis lupus familiaris.
For the compound `Cc1cc(=O)c2c(OCCO)ncc(Cl)c2n1-c1c(Cl)cccc1Cl`, the Ratio is 0.7.

For `Cc1cc(=O)c2c(OCCOCCOCCOCCO)ncc(Cl)c2n1-c1c(Cl)cccc1Cl`, the Ratio is 5.7.

As for `Cc1cc(=O)c2c(F)cncc2n1-c1c(Cl)cc(OCC(O)CO)cc1Cl` (configuration not stated), the Ratio is 0.9.

`Cc1cc(=O)c2c(F)cncc2n1-c1c(Cl)cc(C#N)cc1Cl`: the Ratio turned out to be 1.8.

For the compound `O=c1cc(CO)n(-c2c(Cl)cccc2Cl)c2c(Cl)cnc(OC(CO)CO)c12`, the Ratio was 18.3.

On to `Cc1cc(=O)c2c(F)cncc2n1-c1c(Cl)cc(C#CCN2CCOCC2)cc1Cl`, for which the Ratio turned out to be 1.1.

`Cc1cc(=O)c2c(OCC(O)COCC(O)CO)ncc(Cl)c2n1-c1c(Cl)cccc1Cl` (configuration not stated): the Ratio was determined as 15.

`Cc1cc(=O)c2c(F)cncc2n1-c1c(Cl)cc(C#CCO)cc1Cl`: the Ratio stood at 1.7.

Source of the values: ChEMBL document CHEMBL5252622, “Discovery of a brain-sparing GIRK1/4 inhibitor for pharmacological cardioversion of atrial fibrillation” (Bioorg Med Chem Lett, 2023).
